Laboratory results reported in patent US7456192B2, “3β-amino azabicyclooctane heteroaromatic amid derivatives preparation method and therapeutic uses thereof” (Pierre Fabre Medicament, priority 2001, dated 2008).
Where a name gives a salt, the structure may show the parent alone. Read-outs that look alike come from different tables or passages of the source. Marks after values point to notes of the source that are not given here.

Legend:
[1] = Cataleptic activity in rats, compound alone without methylphenidate; details: rat, in vivo
[2] = molecular target: T1, D2 type central dopaminergic receptor (Homo sapiens, UniProt P14416); experiment: biochemical
T1 sequence (P14416 whole entry): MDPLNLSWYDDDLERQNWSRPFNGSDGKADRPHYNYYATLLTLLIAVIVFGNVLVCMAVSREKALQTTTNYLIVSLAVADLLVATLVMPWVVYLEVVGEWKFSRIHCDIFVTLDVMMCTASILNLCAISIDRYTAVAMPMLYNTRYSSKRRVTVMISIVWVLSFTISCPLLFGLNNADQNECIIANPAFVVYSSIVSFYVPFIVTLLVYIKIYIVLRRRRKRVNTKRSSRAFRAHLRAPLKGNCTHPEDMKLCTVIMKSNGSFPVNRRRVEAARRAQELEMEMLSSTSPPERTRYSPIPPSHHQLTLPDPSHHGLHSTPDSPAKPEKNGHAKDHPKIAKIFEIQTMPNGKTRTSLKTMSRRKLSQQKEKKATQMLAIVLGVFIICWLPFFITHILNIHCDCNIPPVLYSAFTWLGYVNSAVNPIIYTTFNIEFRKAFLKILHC

[3] = tested on: methylphenidate-induced behavior; experiment: Antagonism of methylphenidate-induced behavior in rats (chewing inhibition, normalization); format: in vivo, rat
Protocol: The compounds were tested in vivo (Table II) to measure their ability to antagonize methylphenidate-induced behavior in rats. […] Colpaert J. Pharmacol. Exp. Ther. 267, 181 (1993). This test characterizes the antipsychotic activity in a more in-depth manner than apomorphine effect antagonism, the test conventionally used.

catalepsy = experiment: Cataleptic activity in rats, compound alone without methylphenidate; details: rat, i.p.; 3 or 5 animals
[4] = molecular target: T1, D2 type central dopaminergic receptor; details: radioligand 3H-YM-09151-2
[5] = Rattus norvegicus, po, read-out: Chewing inhibition ED50
[6] = Rattus norvegicus, po, read-out: Normalization ED50
[7] = ip, rat, i.p., 3 or 5 animals, read-out: Chewing inhibition ED50
[8] = ip, rat, i.p., 3 or 5 animals, read-out: Normalization ED50
[9] = Rattus norvegicus, ip, read-out: Chewing inhibition ED50
[10] = Rattus norvegicus, ip, read-out: Normalization ED50

For COc1c(C(=O)N[C@@H]2C[C@H]3CC[C@@H](C2)N3Cc2ccc(F)cc2)sc2nccnc12 [Example 29, 3-Methoxythieno[2,3-b]pyrazine-2-carboxylic acid [8-(4-fluorobenzyl)-8-azabicyclo[3.2.1]oct-3β-yl]amide hydrochloride], the ED50 ([1]; po) was 5 mg/kg, the Ki [2] was 0.661 nM and the ED50 [3, 5] was 0.08 mg/kg. For the same molecule, the ED50 [3, 6] was 0.32 mg/kg.

With O=C(CCCN1CCC(O)(c2ccc(Cl)cc2)CC1)c1ccc(F)cc1 [Haloperidol, reference compound] the ED50 ([1]; ip) was 0.32 mg/kg, the ED50 [3, 7] was 0.08 mg/kg and the ED50 [3, 8] was 0.32 mg/kg.

Molecule CSc1c(C(=O)N[C@@H]2C[C@H]3CC[C@@H](C2)N3Cc2ccccc2)sc2ncccc12 [Example 2, 3-Methylsulfanylthieno[2,3-b]pyridine-2-carboxylic acid (8-benzyl-8-azabicyclo[3.2.1]oct-3β-yl)amide hydrochloride] has an ED50 ([1]; ip) of 1.8 mg/kg, a Ki [2] of 0.447 nM and an ED50 [3, 9] of 0.08 mg/kg. It also gave an ED50 [3, 10] of 0.56 mg/kg.

Work on CCN1CCCC1CNC(=O)c1cc(S(N)(=O)=O)ccc1OC (stereo not shown) [Sulpiride, reference compound] yielded an ED50 ([1]; ip) of over 160 mg/kg, an ED50 [3, 7] of over 40 mg/kg and an ED50 [3, 8] of over 40 mg/kg.

Work on CSc1c(C(=O)N[C@@H]2C[C@H]3CC[C@@H](C2)N3Cc2ccc(F)cc2)sc2nccnc12 [Example 32, 3-Methylsulfanylthieno[2,3-b]pyrazine-2-carboxylic acid [8-(4-fluorobenzyl)-8-azabicyclo[3.2.1]oct-3β-yl]amide hydrochloride] yielded an ED50 ([1]; po) of 1.25 mg/kg, a Ki [2] of 0.676 nM and an ED50 [3, 5] of 0.08 mg/kg. The ED50 [3, 6] was 0.31 mg/kg.

In the case of COc1c(C(=O)N[C@@H]2C[C@H]3CC[C@@H](C2)N3CC2CCCCC2)sc2ncccc12 [Example 10, 3-Methoxythieno[2,3-b]pyridine-2-carboxylic acid [8-cyclohexylmethyl-8-azabicyclo[3.2.1]oct-3β-yl]amide fumarate], the ED50 ([1]; ip) is reported as over 40 mg/kg, the Ki [2] is reported as 2.57 nM and the ED50 [3, 9] is reported as 1.25 mg/kg. It also gave an ED50 [3, 10] of 5 mg/kg.

Molecule COc1c(C(=O)N[C@@H]2C[C@H]3CC[C@@H](C2)N3Cc2ccc(F)cc2)sc2ncccc12 [Example 11, 3-Methoxythieno[2,3-b]pyridine-2-carboxylic acid [(8-(4-fluorobenzyl)-8-azabicyclo[3.2.1]oct-3β-yl)]amide hydrochloride] has an ED50 ([1]; ip) of over 40 mg/kg, a Ki [2] of 0.776 nM and an ED50 [3, 9] of 0.08 mg/kg. It also gave an ED50 [3, 10] of 0.31 mg/kg.

In the case of COc1c(C(=O)N[C@@H]2C[C@H]3CC[C@@H](C2)N3Cc2ccc(Cl)cc2)sc2ncccc12 [Example 8, 3-Methoxythieno[2,3-b]pyridine-2-carboxylic acid [8-(4-chlorobenzyl)-8-azabicyclo[3.2.1]oct-3β-yl]amide hydrochloride], the ED50 ([1]; ip) is reported as over 40 mg/kg, the Ki [2] is reported as 1.74 nM and the ED50 [3, 9] is reported as 0.1 mg/kg. For the same molecule, the ED50 [3, 10] was 1.3 mg/kg.

For COc1c(C(=O)N[C@@H]2C[C@H]3CC[C@@H](C2)N3Cc2ccccc2)sc2nccnc12 [Example 27, 3-Methoxythieno[2,3-b]pyrazine-2-carboxylic acid (8-benzyl-8-azabicyclo[3.2.1]oct-3β-yl)amide hydrochloride], the ED50 ([1]; po) was 9.5 mg/kg, the Ki [2] was 0.437 nM and the ED50 [3, 5] was 0.27 mg/kg. It also gave an ED50 [3, 6] of 0.67 mg/kg.

Cc1nc2n(c(=O)c1CCN1CCC(c3noc4cc(F)ccc34)CC1)CCCC2 [Risperidone, reference compound] gave an ED50 [3, 9] of 0.25 mg/kg and an ED50 [3, 10] of 2.8 mg/kg.

In the case of COc1cccc(C(=O)N[C@@H]2C[C@H]3CC[C@@H](C2)N3Cc2ccccc2)c1OC [Tropapride, reference compound], the “Catalepsy ED50” value (catalepsy) is reported as 0.015^a mg/kg, the “D2 affinity (pKi)” value [4] is reported as 10.02 and the “Chewing inhibition ED50” value ([3]; rat, i.p., 3 or 5 animals) is reported as 0.0059^a mg/kg. The “Normalization ED50” value ([3]; rat, i.p., 3 or 5 animals) was 0.017^a mg/kg.

CSc1c(C(=O)N[C@@H]2C[C@H]3CC[C@@H](C2)N3Cc2ccc(Cl)cc2)sc2nccnc12 [Example 31, 3-Methylsulfanylthieno[2,3-b]pyrazine-2-carboxylic acid [8-(4-chlorobenzyl)-8-azabicyclo[3.2.1]oct-3β-yl]amide hydrochloride] showed an ED50 ([1]; po) of 1.25 mg/kg, a Ki [2] of 2.04 nM and an ED50 [3, 5] of 0.31 mg/kg. For the same molecule, the ED50 [3, 6] was 0.31 mg/kg.

COc1c(C(=O)N[C@@H]2C[C@H]3CC[C@@H](C2)N3Cc2ccccc2)oc2cccnc12 [Example 4, 3-Methoxyfuro[3,2-b]pyridine-2-carboxylic acid (8-benzyl-8-azabicyclo[3.2.1]oct-3β-yl)amide dihydrochloride] showed an ED50 ([1]; ip) of over 40 mg/kg, a Ki [2] of 2.04 nM and an ED50 [3, 9] of 0.12 mg/kg. The ED50 [3, 10] was 0.98 mg/kg.

Work on COc1c(C(=O)N[C@@H]2C[C@H]3CC[C@@H](C2)N3Cc2ccsc2)sc2ncccc12 [Example 12, 3-Methoxythieno[2,3-b]pyridine-2-carboxylic acid [8-thiophen-3-ylmethyl-8-azabicyclo[3.2.1]oct-3β-yl]amide hydrochloride] yielded an ED50 ([1]; ip) of over 40 mg/kg, a Ki [2] of 2.57 nM and an ED50 [3, 9] of 1.25 mg/kg. The ED50 [3, 10] was 1.25 mg/kg.
